Measured values from patent US12059467B2, “Low-toxicity and high-efficiency orthoester mixture pharmaceutical adjuvant, preparation method thereof, and topical sustained release drug delivery formulation including same” (ANHUI UNIVERSITY, priority 2022, dated 2024).
“Also recorded” adds a separate entry of the source.

Columns and labels:
Hypertension model rats = assay: Antihypertensive effect in hypertension model rats; conditions: 40 mg/kg based on an irbesartan content; irbesartan orally, E-1′-Irbe subcutaneous injection
Procedure: Hypertension model rats were treated with irbesartan and the prepared irbesartan injection (E-1′-Irbe) at a dose of 40 mg/kg based on an irbesartan content, where the irbesartan was administered orally and the irbesartan injection (E-1′-Irbe) was administered through subcutaneous injection. A drug concentration in blood and a blood pressure level were detected at a preset time point.

mice [1] = assay: Acute toxicity test (LD50, MTD); format: in vivo
Procedure: With OE-2 in the patent application 202111500943.7 as a reference formulation, the OE-1′ obtained in Example 1 was subjected to an acute toxicity test, and experimental steps were as follows:
OE-2 and 0E-1′ each were administered to different mice at a time through intragastric administration, subcutaneous injection, and intraperitoneal injection with a dose gradient from 1 mg/kg to 50,000 mg/kg; poisoning characteristics of mice within 24 h were observed, and a mortality rate was counted; and an accurate LD50 value was calculated according to the probability unit method and the karber's method, and finally experimental groups were compared in terms of acute toxicity.
Note: The larger the LD50 value in the experimental group, the smaller the acute toxicity.

[2] = Alcohol metabolite biodistribution test; format: in vivo, mice; conditions: subcutaneous, 15,000 mg/kg; urine, blood, heart, liver, spleen, lung, kidney; gas chromatograph
Procedure: Preparation of standard solutions: an appropriate amount of methanol or ethanol was accurately weighed and prepared with water into a 10.0 mg/mL standard solution as a stock solution, and the stock solution was further diluted into aqueous solutions with concentrations of 0.10 mg/mL, 0.20 mg/mL, 0.50 mg/mL, 0.80 mg/mL, 1.00 mg/mL, 2.00 mg/mL, and 3.00 mg/mL, respectively. Preparation of an internal standard solution: an appropriate amount of tert-butyl alcohol (TBA) was accurately weighed and prepared with water into a 5.0 mg/mL TBA stock solution, the TBA stock solution was diluted with water to obtain a 40.0 μg/mL TBA working solution, and the TBA working solution was refrigerated and stored in a closed manner.
Different formulations each were subcutaneously injected into different mice at a dose of 15,000 mg/kg, and then the urine, blood, heart, liver, spleen, lung, and kidney were collected from the mice at different time points. 0.10 mL of each of the standard solutions, urine, blood, and tissue extracts was taken and mixed with 0.50 mL of a 40.0 μg/mL TBA working solution, and a resulting mixture was tested by a gas chromatograph. A standard curve with a linear regression coefficient of 0.999 or higher was plotted with results of the standard solutions, and then a methanol or ethanol content in each sample was calculated. […]

mice [3] = assay: Respiratory system and blood oxygen saturation tests; format: in vivo; conditions: subcutaneous, 15,000 mg/kg, measured daily in the following week
Procedure: Different formulations each were subcutaneously injected into different mice at a dose of 15,000 mg/kg, and a breathing rate and a blood oxygen saturation of mice in each group were measured daily by a small animal non-invasive pulse oximeter in the following week.

mice [4] = assay: Cardiovascular system-associated safety evaluation; format: in vivo; conditions: subcutaneous, 15,000 mg/kg, measured daily in the following week
Procedure: Different formulations each were subcutaneously injected into different mice at a dose of 15,000 mg/kg, and a blood pressure and a heart rate of mice in each group were measured daily by […] in the following week.

mice [5] = assay: Chronic toxicity test; format: in vivo; conditions: subcutaneous, 15,000 mg/kg, 6 months
Procedure: Different formulations each were subcutaneously injected into different mice at a dose of 15,000 mg/kg, and the continuous behavioral observation, routine blood test, biochemical index test, and organ weight measurement were conducted for 6 months.

[6] = tested on: red blood cell (RBC) suspension; assay: Hemolysis test; format: cell-based; conditions: 3 mg/mL to 15 mg/mL, 37° C., 3 h; hemolysis rate lower than 5% means no hemolytic effect
Procedure: Preparation of test samples: negative control: 2.5 mL of a red blood cell (RBC) suspension+2.5 mL of a 0.9% sodium chloride injection; positive control: 2.5 mL of an RBC suspension+2.5 mL of distilled water; and experimental group: 2.5 mL of an RBC suspension+2.2 mL of a 0.9% sodium chloride injection+0.3 mL of a formulation to be tested (3 mg/mL to 15 mg/mL).
Each sample was incubated in a 37° C. thermostatic water bath for 3 h and then centrifuged (3,000 r/min, 5 min) to obtain a supernatant, the supernatant was allowed to stand at room temperature for 30 min, and the absorbance of the sample was determined at 540 nm by a microplate reader; and the influence of plasma contents was eliminated with the absorbance of the negative control group, and then a hemolysis rate (%) of the experimental group could be calculated according to the following formula: HL%=At/Apc×100%, where At represents an absorbance value of a test sample and APC represents an absorbance value of the positive control. When a hemolysis rate is lower than 5%, it means that the formulation of the experimental group has no hemolytic effect at a corresponding concentration.

pain model rats = assay: Analgesic effect in pain model rats; format: in vivo; conditions: subcutaneous, 200 mg/kg based on a mepivacaine content
Procedure: Mepivacaine and the prepared mepivacaine injection (E-A′-Mep) each were subcutaneously injected into different pain model rats at a dose of 200 mg/kg based on a mepivacaine content. A time required for a rat to have a normal response to deep pain and electric stimulation and a time required for a rat to return from a motor weakness state to a normal state were then recorded; and when half of rats returned to a normal state, the test was stopped.

mice [7] = assay: Antibody-producing effect (IgG) in mice; format: in vivo; conditions: subcutaneous, 50 mg/kg based on an ovalbumin content on day 1 and day 15
Procedure: Ovalbumin and the prepared ovalbumin injection (E-C′-Ova) were subcutaneously injected into different mice at a dose of 50 mg/kg based on an ovalbumin content on day 1 and day 15, and an IgG concentration was detected.

Molecule: CCCCC1=NC2(CCCC2)C(=O)N1Cc1ccc(-c2ccccc2-c2nnn[nH]2)cc1 [irbesartan]
- blood pressure level (Hypertension model rats): can reduce a blood pressure; also recorded: rebounds rapidly
- drug concentration in blood (Hypertension model rats): decreases rapidly

Molecule: CCOC1OCC(COCC2COC(OCC)O2)O1 (centres unmarked) [OE-1′, 4,4′-(Oxybis(Methylene))Bis(2-Ethoxy-1,3-Dioxolane)]
- tolerance dose of mice (MTD) (mice [1]; mouse, in vivo): higher than a tolerance dose of mice for OE-2
- LD50 value (mice [1]; single administration, intragastric, subcutaneous, intraperitoneal, mortality within 24 h): significantly higher than an LD50 value of OE-2
- methanol or ethanol content in each sample [2]: a trace amount of ethanol is detected in each sample
- blood oxygen saturation (mice [3]): at normal levels
- breathing rate (mice [3]): at normal levels
- cardiovascular function (blood pressure and heart rate) (mice [4]): at a normal level
- organ mass (mice [5]): significantly higher than an organ mass of mice in the OE-2 group
- hemolytic effect (hemolysis rate) [6]: does not lead to a hemolytic effect

Molecule: Cc1cccc(C)c1NC(=O)C1CCCCN1C (centres unmarked) [Normal saline (NS) + mepivacaine, mepivacaine]
- Time required for half of rats to have a normal response, Deep pain (pain model rats): 60 min
- Time required for half of rats to have a normal response, Electric stimulation (pain model rats): 60 min
- Time required for half of rats to have a normal response, Motor weakness (pain model rats): 60 min

B1: ovalbumin (protein, UniProt P01012 2-386, looked up)
Ovalbumin: GSIGAASMEFCFDVFKELKVHHANENIFYCPIAIMSALAMVYLGAKDSTRTQINKVVRFDKLPGFGDSIEAQCGTSVNVHSSLRDILNQITKPNDVYSFSLASRLYAEERYPILPEYLQCVKELYRGGLEPINFQTAADQARELINSWVESQTNGIIRNVLQPSSVDSQTAMVLVNAIVFKGLWEKAFKDEDTQAMPFRVTEQESKPVQMMYQIGLFRVASMASEKMKILELPFASGTMSMLVLLPDEVSGLEQLESIINFEKLTEWTSSNVMEERKIKVYLPRMKMEEKYNLTSVLMAMGITDVFSSSANLSGISSAESLKISQAVHAAHAEINEAGREVVGSAEAGVDAASVSEEFRADHPFLFCIKHIATNAVLFFGRCVSP
notes: ovalbumin alone, injected subcutaneously as comparator
- IgG concentration (mice [7]): decreases rapidly
